Test results taken from US20260021109A1, “PROSTANOID RECEPTOR AGONISTS AS NON-TUBERCULOUS ANTI-MYCOBACTERIAL AGENTS” (priority 2022, published 2026).

Legend:
[1] = system: M. marinum; assay: M. marinum infection of zebrafish; assay type: in vivo; conditions: zebrafish infected by M. marinum; FIG. 4C
[2] = system: M. tuberculosis; assay: in vitro infection of THP1 monocytic human cell line with M. tuberculosis; assay type: cell-based; conditions: THP1 cells, untreated control 0.50, p=0.0165, FIG. 4B
[3] = system: M. abscessus; assay: M. abscessus in liquid culture (absence of THP1 cells); assay type: cell-based; conditions: liquid culture medium, no THP1 cells; Treprostinil 50 μM; versus untreated; FIG. 6
[4] = system: zebrafish homolog of the EP2 receptor (EP2a); assay: CRISPR EP2a KO zebrafish infected with M. abscessus; assay type: in vivo; conditions: M. abscessus infected control and F0 CRISPR EP2a KO zebrafish; FIG. 7
From the text: To explore the mechanism of action of Treprostinil in this context, the zebrafish homolog of the EP2 receptor was knocked out using CRISPR and control and KO zebrafish were infected with M. abscessus. […] This definitively confirms that Treprostinil acts via an EP2-mediated host-directed therapeutic effect.

[5] = system: M. abscessus; assay: in vitro infection of THP1 monocytic human cell line with M. abscessus; assay type: cell-based; conditions: for M. abscessus survival rate: THP1 cells, 48H, untreated control 2.7, p=0.005, FIG. 4A
[6] = system: M. abscessus; conditions: zebrafish, in vivo

With `CCCCC[C@H](O)CC[C@@H]1[C@H]2Cc3cccc(OCC(=O)O)c3C[C@H]2C[C@H]1O` [Treprostinil] as the compound, how does the “effect on M. marinum numbers in zebrafish” value [1] read?
Its value is “no observable effect”.

What about the “M. tuberculosis survival rate” value ([2]; 400 nM) of the same compound?
The value was 0.44.

What about the “M. tuberculosis survival rate” value ([2]; 1 μM) of the same compound?
The value was 0.37.

And the “direct antibiotic effect on M. abscessus growth” value [3]?
Its value is “no difference in growth”.

What about the “Treprostinil rescue in EP2a KO zebrafish” value [4] of the same compound?
The value was “completely abrogated”.

And the “dose response of killing of M. abscessus” value ([5]; FIG. 5B, THP1 killing of M. abscessus according to legend b39)?
The value was “dose response to the effect was also observed”.

What about the “M. abscessus survival rate” value ([5]; 400 nM) of the same compound?
The value was 1.07.

What about the “M. abscessus survival rate” value ([5]; 1 μM) of the same compound?
Its value is 1.24.

And the “killing of M. abscessus compared with imipenem” value [6]?
Its value is “significantly more effective than imipenem”.
